From BindingDB's records for doi:10.7270/Q2KD1WBN (Burnham Center For Chemical Genomics, 2010)

Biological target: Envelope glycoprotein gp160 (Human immunodeficiency virus 1, UniProt Q6QLK5)
Assay: blockers of HIV fusion peptide binding, cell-free – biochemical, fluorescence quenching, SAR follow-up (AID 434967)

Envelope glycoprotein gp160, sequence (Q6QLK5 whole entry, the tested form may be a part): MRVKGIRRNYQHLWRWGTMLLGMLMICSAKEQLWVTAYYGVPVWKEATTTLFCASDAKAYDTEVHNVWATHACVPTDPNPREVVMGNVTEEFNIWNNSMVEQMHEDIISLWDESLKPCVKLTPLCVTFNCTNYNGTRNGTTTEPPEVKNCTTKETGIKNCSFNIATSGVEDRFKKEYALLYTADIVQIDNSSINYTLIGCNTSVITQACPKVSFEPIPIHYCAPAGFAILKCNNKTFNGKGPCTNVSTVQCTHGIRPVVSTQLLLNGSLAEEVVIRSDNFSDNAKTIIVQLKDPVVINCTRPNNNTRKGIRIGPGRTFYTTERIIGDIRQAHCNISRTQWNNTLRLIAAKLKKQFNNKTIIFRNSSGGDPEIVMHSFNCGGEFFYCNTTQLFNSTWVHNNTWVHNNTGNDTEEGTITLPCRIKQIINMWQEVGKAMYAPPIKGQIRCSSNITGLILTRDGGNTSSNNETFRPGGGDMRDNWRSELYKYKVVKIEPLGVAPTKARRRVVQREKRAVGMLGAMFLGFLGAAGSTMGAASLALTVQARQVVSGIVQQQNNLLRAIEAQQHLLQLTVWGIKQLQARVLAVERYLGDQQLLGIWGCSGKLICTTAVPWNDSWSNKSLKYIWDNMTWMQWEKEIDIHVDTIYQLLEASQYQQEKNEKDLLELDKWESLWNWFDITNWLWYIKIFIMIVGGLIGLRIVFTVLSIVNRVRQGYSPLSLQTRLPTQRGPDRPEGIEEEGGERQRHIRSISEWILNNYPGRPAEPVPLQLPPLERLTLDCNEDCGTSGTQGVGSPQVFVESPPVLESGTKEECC

Row | Compound | IC50
1 | Cc1c(Cl)cccc1NS(=O)(=O)c1ccc2c(c1)C1C=CCC1C(c1ccc(C(=O)O)cc1)N2 (stereo not drawn) | 3.16 µM
2 | CS(=O)(=O)C1=NSC2=NC(=O)/C(=C\c3cccn3-c3ccc(Cl)cc3)C(=N)N21 | 5.7 µM
3 | COc1cc(/C=C2\SC(=O)N(c3ccccc3Cl)C2=O)cc([N+](=O)[O-])c1O | 9.04 µM
4 | N#C/C(=C\C1C=CC(=O)C([N+](=O)[O-])=C1)c1nc2ccccc2s1 (stereo not drawn) | 6.25 µM
5 | CCC(Sc1nc2ccsc2c(=O)n1Cc1ccc(C(=O)O)cc1)C(=O)Nc1ccc(C)c(Cl)c1 (stereo not drawn) | 8.01 µM
6 | CS(=O)(=O)C1=NSC2=NC(=O)/C(=C\c3ccc(OS(=O)(=O)c4ccccc4)cc3)C(=N)N21 | 7.73 µM
7 | CCOc1cc(/C=C2\SC(=O)N(CC(=O)Nc3ccccc3F)C2=O)cc([N+](=O)[O-])c1O | 4.32 µM
8 | O=C1Nc2ccc([N+](=O)[O-])cc2C1=NNc1ccccc1C(=O)O [2-[2-(5-nitro-2-oxidanylidene-indol-3-yl)hydrazinyl]benzoic acid] | 13.3 µM
9 | CCOC(=O)C1=C(C)N=c2sc(=Cc3ccc(OCC(=O)O)cc3)c(=O)n2C1c1ccc(OC(C)C)cc1 (stereo not drawn) [2-[4-[[6-ethoxycarbonyl-7-methyl-3-oxo-5-(4-propan-2-yloxyphenyl)-5H-[1,3]thiazolo[3,2-a]pyrimidin-2-ylidene]methyl]phenoxy]acetic acid] | 6.64 µM
10 | O=c1/c(=C/c2cc([N+](=O)[O-])cc([N+](=O)[O-])c2O)sc2nc3ccccc3n12 [2-[(2-hydroxy-3,5-dinitrophenyl)methylidene]-1-thiazolo[3,2-a]benzimidazolone] | 2.61 µM
11 | CCC(C)(C)C1CCc2c(sc(NC(=O)c3ccccc3C(=O)O)c2C#N)C1 (stereo not drawn) [2-[[3-cyano-6-(2-methylbutan-2-yl)-4,5,6,7-tetrahydro-1-benzothiophen-2-yl]carbamoyl]benzoic acid] | 6.1 µM
12 | O=C(O)c1ccccc1C(=O)N(Cc1cccc(Oc2ccc(Cl)cc2)c1)[C@H]1CCCc2ccccc21 [2-[[[3-(4-chlorophenoxy)phenyl]methyl-[(1S)-1,2,3,4-tetrahydronaphthalen-1-yl]amino]-oxomethyl]benzoic acid] | 2.6 µM
13 | COc1cc(CN=Nc2ccc(Cl)c(C(=O)O)c2)ccc1OC(=O)c1ccc(F)cc1 [2-chloro-5-[2-[[4-[(4-fluorophenyl)-oxomethoxy]-3-methoxyphenyl]methylidene]hydrazinyl]benzoic acid] | 8.03 µM
14 | CC(C)S(=O)(=O)C1=NSC2=NC(=O)/C(=C\c3ccc(-c4cccc(C(=O)O)c4)o3)C(=N)N21 [3-[5-[(Z)-(5-imino-7-oxo-3-propan-2-ylsulfonyl-[1,2,4]thiadiazolo[4,5-a]pyrimidin-6-ylidene)methyl]furan-2-yl]benzoic acid] | 4.49 µM
15 | O=[N+]([O-])c1cc([N+](=O)[O-])c2oc(-c3ccccc3)c(Br)c2c1O [3-bromanyl-5,7-dinitro-2-phenyl-1-benzofuran-4-ol] | 14.5 µM
16 | O=C(O)CCCN1C(=O)/C(=C/c2ccc(-c3nc4ccccc4s3)o2)SC1=S [4-[(5Z)-5-[[5-(1,3-benzothiazol-2-yl)furan-2-yl]methylidene]-4-oxo-2-sulfanylidene-1,3-thiazolidin-3-yl]butanoic acid] | 1.76 µM
17 | CC(C)(C)c1cc(-c2cs/c(=N\c3ccccc3)n2Cc2ccc(C(=O)O)cc2)cc(C(C)(C)C)c1O [4-[[4-(3,5-ditert-butyl-4-oxidanyl-phenyl)-2-phenylazanyl-1,3-thiazol-3-ium-3-yl]methyl]benzoic acid;bromide] | 27.3 µM
18 | Cc1ccc(S(=O)(=O)Oc2ccc(/C=C3/C(=N)N4C(=NC3=O)SN=C4S(C)(=O)=O)cc2)cc1 [4-methylbenzenesulfonic acid [4-[(Z)-(5-imino-3-methylsulfonyl-7-oxo-[1,2,4]thiadiazolo[4,5-a]pyrimidin-6-ylidene)methyl]phenyl] ester] | 6.51 µM
19 | O=C1NC(=S)N(c2ccc(F)cc2)C(=O)C1=Cc1ccco1 [(5E)-1-(4-fluorophenyl)-5-(2-furanylmethylidene)-2-sulfanylidene-1,3-diazinane-4,6-dione] | 10 µM

Row | Compound | IC50
20 | Cc1cc(C)cc(-n2cccc2/C=C2/C(=N)N3C(=NC2=O)SN=C3S(C)(=O)=O)c1 [(6Z)-5-azanylidene-6-[[1-(3,5-dimethylphenyl)pyrrol-2-yl]methylidene]-3-methylsulfonyl-[1,2,4]thiadiazolo[4,5-a]pyrimidin-7-one] | 7.81 µM
21 | CC(C)S(=O)(=O)C1=NSC2=NC(=O)/C(=C\c3ccc(-c4ccccc4)o3)C(=N)N21 [(6Z)-5-imino-6-[(5-phenyl-2-furanyl)methylidene]-3-propan-2-ylsulfonyl-[1,2,4]thiadiazolo[4,5-a]pyrimidin-7-one] | 9.65 µM
22 | CSc1nnc(-c2ccccc2N=Cc2c(C)[nH]n(-c3ccc4ccccc4c3)c2=O)c(=O)[nH]1 [MLS000540062] | 9.84 µM
23 | Cc1ccc(-n2cccc2/C=C2/C(=N)N3C(=NC2=O)SN=C3S(C)(=O)=O)cc1Cl [MLS000583163] | 5.76 µM
24 | CC1(C)CC(=O)C2=C(C1)c1c(ccc3ccccc13)NC2c1cc([N+](=O)[O-])cc([N+](=O)[O-])c1O (stereo not drawn) [MLS000716265] | 13.5 µM
25 | Cc1c2c(=O)n(-c3nc4ccccc4s3)[nH]c2cc(=O)n1Cc1ccccc1 [MLS000762993] | 10.1 µM
26 | COc1ccccc1NS(=O)(=O)c1cccc(-n2c(O)c(C=Nc3ccccc3C(=O)O)c3ccccc3c2=O)c1 [MLS000776209] | 9.64 µM
27 | COc1ccc(OC)c(N2C(=O)C(=Cc3ccco3)C(=O)NC2=S)c1 [MLS001197216] | 6.06 µM
28 | COc1cc(/C=N/NS(=O)(=O)c2ccc3ccccc3c2)ccc1OCc1ccc(C(=O)O)cc1 [MLS-0298745.0001] | 7.76 µM
29 | O=C(O)c1cc(N=NCc2ccc(-c3ccccc3)cc2)ccc1Cl [MLS-0319671.0001] | 14.8 µM
30 | CCS(=O)(=O)C1=NSC2=NC(=O)/C(=C\c3ccc(OS(=O)(=O)c4ccccc4)cc3)C(=N)N21 [MLS-0362442.0001] | 11.5 µM
31 | CC(C)NC(=O)c1sc(=S)n2c1[nH]c(=O)c1ccc(C(=O)NCCc3ccc(Cl)cc3)cc12 [N8-[2-(4-chlorophenyl)ethyl]-5-oxidanylidene-N3-propan-2-yl-1-sulfanylidene-4H-[1,3]thiazolo[3,4-a]quinazoline-3,8-dicarboxamide] | 9.56 µM
32 | O=C1NC(=S)N(C2CCCCC2)C(=O)C1=CNNC(=O)c1ccccc1O [N'-[(E)-(1-cyclohexyl-4,6-dioxo-2-sulfanylidene-1,3-diazinan-5-ylidene)methyl]-2-hydroxybenzohydrazide] | 9 µM
33 | O=C1NC(=S)N(c2ccc(F)cc2)C(=O)C1=Cc1ccoc1 [SMR000270574] | 8.59 µM
34 | Cc1ccc(-n2c(O)c(C=Nc3ccccc3-c3n[nH]c(=S)[nH]c3=O)c3ccccc3c2=O)c(C)c1 [SMR000370443] | 5.76 µM
35 | COC(=O)c1sc(-c2ccc(C(C)(C)C)cc2)cc1NC(=O)c1ccccc1C(=O)O [SMR000456098] | 5.94 µM
36 | COc1cc(CN=Nc2ccc(Cl)c(C(=O)O)c2)ccc1OC(=O)c1ccccc1F [SMR000589905] | 25.9 µM
37 | COc1ccc(C(=O)Oc2ccc(CN=Nc3ccc(Cl)c(C(=O)O)c3)cc2OC)cc1 [SMR000589907] | 5.16 µM
38 | CCOC(=O)c1sc(N2C(=O)C(=O)C(C(=O)c3ccc(C)o3)C2c2cccc([N+](=O)[O-])c2)nc1C (stereo not drawn) [ethyl 4-methyl-2-[3-(5-methylfuran-2-yl)carbonyl-2-(3-nitrophenyl)-4-oxidanyl-5-oxidanylidene-2H-pyrrol-1-yl]-1,3-thiazole-5-carboxylate] | 10.5 µM
